The data set can be described thus: Clinical pharmacokinetic study (RUN-001): vortioxetine 5 mg once daily for 29 days, then 28 days washout, obese vs normal-weight subjects. It is filed as in vivo, human. The note with it: both, human, in vivo. The method, then:
To test if the obese patients would require different washout guidelines for preventing serotonin syndrome, 16 obese subjects (BMI≥35) and 13 normal subjects (BMI<25) completed a clinical trial where they were administered daily with low doses (5 mg/day) of vortioxetine for 29 days in a controlled study. All subjects were subsequently tracked for 28 days after discontinuing vortioxetine on day 29. Blood samples were collected and processed according to standard techniques.
The normal-weight control group consisted of healthy male and female volunteers aged 18 to 45 years. Their body mass index (BMI) values fell in the range of […]. […] Normal weight and obese subjects were matched as closely as possible for gender and age.
CYP2D6 genotype status was determined from whole blood samples drawn from each subject. Known alleles of CYP2D6 were tested for, as well as the presence of gene duplications (LabCorp, Inc.). CYP2D6 metabolizer status was categorized as ultra-rapid, extensive, intermediate, or poor. Ultra-rapid and poor metabolizers were not included in the study.
All subjects received vortioxetine, 5 mg once daily in the morning, for 29 days. The first dose was on Day 1, and the last dose was on Day 29. Blood sampling continued for another 28 days after the last dose, through Day 57.
Subjects spent 12 hours in the study unit on Day 1 (first dose of vortioxetine) and Day 29 (last dose of vortioxetine). On those two study days, venous blood samples (7 mL each) were drawn prior to the dose of vortioxetine, and at 1, 2, 4, 6, 8, 10, and 12 hours after dosage.
During the 29-day period of daily vortioxetine administration, subjects returned to the study unit in the morning of the following study days: 2, 3, 5, 8, 10, 12, 15, 17, 19, 22, 24, 26, and 29. At each visit, a single venous blood sample (7 mL) was drawn before the daily dose of vortioxetine. Subjects underwent a brief interview to assess subjective effects and possible adverse events. Subjects were then discharged until the next scheduled visit. They were provided with vortioxetine doses sufficient for daily morning administration until the next visit. No more than 2 consecutive doses of vortioxetine were taken on an outpatient basis.
On Day 29 (the final dose of vortioxetine), subjects spent 12 hours in the study unit as described above. They returned to the study unit for a single blood sample on the mornings of the following Days: 30, 31, 33, 36, 38, 40, 43, 45, 47, 50, 52, 54, and 57.
Plasma concentrations of vortioxetine were determined by liquid chromatography—mass spectrometry using a Shimadzu HPLC system coupled to a Sciex API-4000 mass spectrometer.
The internal standard (vortioxetine-d8) was added to calibration standards, quality control samples, and unknown study samples. All samples were extracted with methyl tert-butyl ether. The organic phase was separated and evaporated to dryness; the reconstituted extract was injected into the HPLC system. The HPLC column was a Unison UK-C18, 50 mm×2 mm, 3 micron particle size. The mobile phase consisted of an organic component (0.1% formic acid in acetonitrile) and an aqueous component (0.1% formic acid and 2 mM ammonium acetate in water). This was delivered in gradient mode at a net flow rate of 0.4 mL/min, with the organic fraction varying from 40% to 96%. m/z monitored were: 299.1/150.1 for vortioxetine, and 307.1/153 for vortioxetine-d8. The limit of quantitation was 0.1 ng/mL. […] All samples from a given study subject were extracted and analyzed at the same time using the same calibration standards.
Based on the clinical trials discussed above, several equations were derived which allow an individual to calculate the washout period (i.e., the time between stopping vortioxetine and initiating treatment with an MAOI). Data points to consisted of pre-dose plasma vortioxetine concentration (C) on each study day (t), both during (Days 1-29) and after (Days 30-57) the period of vortioxetine administration. […]

`CC[C@@H]([C@H](C)O)n1ncn(-c2ccc(N3CCN(c4ccc(OC[C@@H]5CO[C@@](Cn6cncn6)(c6ccc(F)cc6F)C5)cc4)CC3)cc2)c1=O` [posaconazole] came in with an elimination half-life of 78.2 h.

These data come from US12508261B2, “Methods of treating depression with vortioxetine” (Rundle Research LLC, priority 2017, dated 2025).
